Measured values as given in patent US8084456B2, “Pyrazine-based tubulin inhibitors” (YM Biosciences Australia Pty Ltd, priority 2002, dated 2011).

Legend:
[1] = test system: DU145 (Prostate Cancer) cells; assay: Cellular growth assay (MTT), DU145; assay type: cell-based; conditions: Homo sapiens, DU-145, 40 hr incubation, read-out: DU145 (inhibition of 50% of cellular growth)
Procedure: (§1) K562 (Chronic Myeloid Leukemia), PC3 (Prostate Cancer), and DU145 (Prostate Cancer) were obtained from the American Type Culture Collection (ATCC). K562 was grown in RPMI, with 10% FBS with Glutamx added. DU145 cells were cultured in DMED, with 10% FBS and Glutamx and MEM non-essential amino acids added. PC3 cells were grown in F12K medium, with 10% FBS and Glutamx and MEM non-essential amino acids added. All cells were grown at 37° C. in 5% CO2.

TelJak2 = TelJak2 (Homo sapiens, UniProt O60674); assay: Cellular growth assay (MTT), BaF3 TEL/JAK2 cells; assay type: cell-based; conditions: 40 hr incubation, read-out: TelJak2 (inhibition of 50% of cellular growth)
TelJak3 = TelJak3 (Homo sapiens, UniProt P52333); assay: Cellular growth assay (MTT), BaF3 TEL/JAK3 cells; assay type: cell-based; conditions: 40 hr incubation, read-out: TelJak3 (inhibition of 50% of cellular growth)
[2] = test system: K562 (Chronic Myeloid Leukemia) cells; assay: Cellular growth assay (MTT), K562; assay type: cell-based; conditions: Homo sapiens, 40 hr incubation, read-out: K562 (inhibition of 50% of cellular growth)
Procedure: as §1

Tubulin = Tubulin assay (turbidometric microtubule assembly); assay type: biochemical; conditions: at 50 μM, absorbance at 340 nm, 37° C.
Procedure: Turbidometric assays of microtubule assembly were performed by incubating microtubule protein in cuvettes at 37° C. in a thermostatically controlled spectrophotometer measuring the change in absorbance at 340 nm over time. The microtubule protein was incubated with the each test compound at 0° C. and polymerisation was initiated by addition of 1 mM GTP, prior to heating to 37° C.

[3] = test system: PC3 (Prostate Cancer) cells; assay: Cellular growth assay (MTT), PC3; assay type: cell-based; conditions: Homo sapiens, PC-3, 40 hr incubation, read-out: PC3 (inhibition of 50% of cellular growth)
Procedure: as §1

TelJak3, sequence (P52333 with tags, fused parts or gaps): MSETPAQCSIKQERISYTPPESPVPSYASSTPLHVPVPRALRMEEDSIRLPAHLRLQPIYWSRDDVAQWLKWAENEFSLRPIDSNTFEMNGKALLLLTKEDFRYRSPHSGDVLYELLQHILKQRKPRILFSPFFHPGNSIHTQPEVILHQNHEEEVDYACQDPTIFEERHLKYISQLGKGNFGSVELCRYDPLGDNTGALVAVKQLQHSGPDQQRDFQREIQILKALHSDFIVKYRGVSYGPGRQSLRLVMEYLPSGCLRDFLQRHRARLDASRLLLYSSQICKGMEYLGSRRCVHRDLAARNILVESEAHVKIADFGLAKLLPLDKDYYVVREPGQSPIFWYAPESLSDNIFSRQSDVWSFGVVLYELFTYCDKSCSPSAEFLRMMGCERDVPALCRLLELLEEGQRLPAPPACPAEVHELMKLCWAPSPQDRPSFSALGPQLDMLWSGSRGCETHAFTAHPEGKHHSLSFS
TelJak2, sequence (O60674 with tags, fused parts or gaps): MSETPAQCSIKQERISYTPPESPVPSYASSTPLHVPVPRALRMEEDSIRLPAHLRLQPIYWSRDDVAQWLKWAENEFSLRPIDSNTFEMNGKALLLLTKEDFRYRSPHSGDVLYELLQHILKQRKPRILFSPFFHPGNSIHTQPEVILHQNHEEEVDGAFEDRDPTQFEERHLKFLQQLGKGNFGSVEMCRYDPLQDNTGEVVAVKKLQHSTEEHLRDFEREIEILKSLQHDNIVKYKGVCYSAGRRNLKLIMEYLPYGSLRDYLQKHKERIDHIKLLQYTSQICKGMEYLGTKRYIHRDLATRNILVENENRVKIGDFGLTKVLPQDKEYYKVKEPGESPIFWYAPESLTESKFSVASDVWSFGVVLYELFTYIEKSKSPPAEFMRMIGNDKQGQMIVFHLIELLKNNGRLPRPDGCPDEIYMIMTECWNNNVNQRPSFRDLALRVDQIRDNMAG

| SMILES | IC50 [1] [µM] | IC50 (TelJak2) [µM] | IC50 (TelJak3) [µM] | IC50 [2] [µM] | Tubulin (inhibition of tubulin polymerisation) (Tubulin) | IC50 [3] [µM] |
| --- | --- | --- | --- | --- | --- | --- |
| CCCC(Nc1cncc(-c2ccc(O)c(OC)c2)n1)c1ccc(C(F)(F)F)cc1 (stereo not drawn) | > 20 | > 20 | > 20 | > 20 | − (did not inhibit tubulin polymerisation by 50% at 50 μM) | > 20 |
| CCCC(Nc1cncc(-c2ccc(OC)c(OC)c2)n1)c1ccccc1 (stereo not drawn) | ≤ 20 | ≤ 20 | ≤ 20 | ≤ 20 | + (inhibited tubulin polymerisation by greater than 50% at 50 μM) | ≤ 20 |
| CCCC(Nc1cnc(C)c(-c2ccc(N)c(OC)c2)n1)c1ccccc1 (stereo not drawn) | ≤ 20 | ≤ 20 | ≤ 20 | ≤ 20 | + (inhibited tubulin polymerisation by greater than 50% at 50 μM) | ≤ 20 |
| CCCC(Nc1cncc(-c2ccc(O)c(OC)c2)n1)c1cncc(C)c1 (stereo not drawn) | > 20 | ≤ 20 | ≤ 20 | ≤ 20 | + (inhibited tubulin polymerisation by greater than 50% at 50 μM) | ≤ 20 |
| CCCC(Nc1cncc(-c2ccc(O)c(OC)c2)n1)c1cccc(OC)c1 (stereo not drawn) | ≤ 20 | ≤ 20 | ≤ 20 | ≤ 20 | + (inhibited tubulin polymerisation by greater than 50% at 50 μM) | ≤ 20 |
| CCCC(Nc1cncc(-c2ccc(O)c(OC(C)C)c2)n1)c1cccnc1 (stereo not drawn) | ≤ 20 | ≤ 20 | ≤ 20 | ≤ 20 | + (inhibited tubulin polymerisation by greater than 50% at 50 μM) | ≤ 20 |
| CCCC(Nc1cncc(-c2ccc(O)c(OC)c2)n1)c1c(F)cccc1Cl (stereo not drawn) | ≤ 20 | ≤ 20 | ≤ 20 | ≤ 20 | + (inhibited tubulin polymerisation by greater than 50% at 50 μM) | ≤ 20 |
| CCCC(Nc1cncc(-c2ccc(O)c(OC)c2)n1)c1cccc(F)c1 (stereo not drawn) | ≤ 20 | ≤ 20 | ≤ 20 | ≤ 20 | + (inhibited tubulin polymerisation by greater than 50% at 50 μM) | ≤ 20 |
| CCC[C@H](Nc1cncc(-c2ccc(O)c(OC)c2)n1)c1cccc(F)c1 | ≤ 20 | ≤ 20 | ≤ 20 | ≤ 20 | + (inhibited tubulin polymerisation by greater than 50% at 50 μM) | ≤ 20 |
| CCCC(Nc1nc(-c2ccc(N)c(OC)c2)cnc1C)c1ccccc1 (stereo not drawn) | ≤ 20 | ≤ 20 | ≤ 20 | ≤ 20 | + (inhibited tubulin polymerisation by greater than 50% at 50 μM) | ≤ 20 |
| CCCC(Nc1cncc(-c2ccc(N)c(OC)c2)n1)c1ccc(F)cc1 (stereo not drawn) | ≤ 20 | ≤ 20 | ≤ 20 | ≤ 20 | + (inhibited tubulin polymerisation by greater than 50% at 50 μM) | ≤ 20 |
| CCC[C@H](Nc1cncc(-c2ccc(N)c(OC)c2)n1)c1ccccc1 | ≤ 20 | ≤ 20 | ≤ 20 | ≤ 20 | + (inhibited tubulin polymerisation by greater than 50% at 50 μM) | ≤ 20 |
| CCCC(Nc1cncc(-c2ccc3c(c2)OCO3)n1)c1ccccc1 (stereo not drawn) | ≤ 20 | ≤ 20 | ≤ 20 | ≤ 20 | + (inhibited tubulin polymerisation by greater than 50% at 50 μM) | ≤ 20 |
| CCCC(Nc1cncc(-c2ccc(O)c(OC)c2)n1)c1cccc(C(F)(F)F)c1 (stereo not drawn) | ≤ 20 | ≤ 20 | ≤ 20 | ≤ 20 | + (inhibited tubulin polymerisation by greater than 50% at 50 μM) | ≤ 20 |
| CCCC(Nc1cncc(-c2ccc(O)c(OC)c2)n1)c1cccc(N)c1 (stereo not drawn) | > 20 | ≤ 20 | ≤ 20 | ≤ 20 | + (inhibited tubulin polymerisation by greater than 50% at 50 μM) | ≤ 20 |
| CCCC(Nc1cncc(-c2ccc(O)c(OC)c2)n1)c1ccc(C)cc1 (stereo not drawn) | ≤ 20 | ≤ 20 | ≤ 20 | ≤ 20 | + (inhibited tubulin polymerisation by greater than 50% at 50 μM) | ≤ 20 |
